Test results taken from PubChem BioAssay AID256 (DTP/NCI, 2004).
Several values for one entry are separate records, joined by “and”; a condition that tells them apart may be missing. Equal values may be shown once. Toxic doses and inconclusive results are not listed. The calls were made as follows: active = survival T/C of 150% or more; inactive = T/C below 125% in these data.

System: CD2F1 mice, L1210 leukemia ip, survival T/C
Assay: NCI In Vivo Anticancer Drug Screen. Data for tumor model L1210 Leukemia (intraperitoneal) in CD2F1 (CDF1) mice
Details: higher = longer survival
How it was run: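 Activity against a transplanted murine tumor was judged by comparing the compound group with a vehicle group. The outcome in the treated animals was divided by that in the controls.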

[1] = endpoint: mean survival time, dose: 5.0 mg/kg/injection, schedule: Q01DX001 (ip), vehicle: saline
[2] = endpoint: mean survival time, dose: 10.0 mg/kg/injection, schedule: Q01DX001 (ip), vehicle: saline
[3] = endpoint: mean survival time, dose: 20.0 mg/kg/injection, schedule: Q01DX001 (ip), vehicle: saline
[4] = endpoint: mean survival time, dose: 100.0 mg/kg/injection, schedule: Q01DX001 (ip), vehicle: saline
[5] = endpoint: mean survival time, dose: 200.0 mg/kg/injection, schedule: Q01DX001 (ip), vehicle: saline
[6] = endpoint: mean survival time, dose: 400.0 mg/kg/injection, schedule: Q01DX001 (ip), vehicle: saline
[7] = endpoint: mean survival time, dose: 100.0 mg/kg/injection, schedule: Q04DX003 (ip), vehicle: saline with Tween-80
[8] = endpoint: mean survival time, dose: 200.0 mg/kg/injection, schedule: Q04DX003 (ip), vehicle: saline with Tween-80
[9] = endpoint: mean survival time, dose: 400.0 mg/kg/injection, schedule: Q04DX003 (ip), vehicle: saline with Tween-80
[10] = endpoint: mean survival time, dose: 50.0 mg/kg/injection, schedule: Q01DX009 (ip), vehicle: saline with Tween-80
[11] = endpoint: mean survival time, dose: 100.0 mg/kg/injection, schedule: Q01DX009 (ip), vehicle: saline with Tween-80
[12] = endpoint: mean survival time, dose: 200.0 mg/kg/injection, schedule: Q01DX009 (ip), vehicle: saline with Tween-80
[13] = endpoint: mean survival time, dose: 400.0 mg/kg/injection, schedule: Q01DX009 (ip), vehicle: saline with Tween-80
[14] = endpoint: mean survival time, dose: 25.0 mg/kg/injection, schedule: Q04DX002 (ip), vehicle: saline with Tween-80
[15] = endpoint: mean survival time, dose: 50.0 mg/kg/injection, schedule: Q04DX002 (ip), vehicle: saline with Tween-80
[16] = endpoint: mean survival time, dose: 100.0 mg/kg/injection, schedule: Q04DX002 (ip), vehicle: saline with Tween-80

Measured: T/C

OCC1OC(n2ncc3c2ncn2ccnc32)C(O)C1O (stereo not given)
inactive: endpoint: mean survival time, dose: 12.5 mg/kg/injection, schedule: Q01DX005 (ip), vehicle: water 101 % of control | endpoint: mean survival time, dose: 25.0 mg/kg/injection, schedule: Q01DX005 (ip), vehicle: water 101 % of control | endpoint: mean survival time, dose: 50.0 mg/kg/injection, schedule: Q01DX005 (ip), vehicle: water 97 % of control | endpoint: mean survival time, dose: 100.0 mg/kg/injection, schedule: Q01DX005 (ip), vehicle: water 97 % of control | endpoint: mean survival time, dose: 200.0 mg/kg/injection, schedule: Q01DX005 (ip), vehicle: water 109 % of control

BrC1(Br)C2CC/C=C/CCCCC21 (stereo not given)
inactive: endpoint: mean survival time, dose: 100.0 mg/kg/injection, schedule: Q04DX003 (ip), vehicle: saline sonified 97 % of control | endpoint: mean survival time, dose: 200.0 mg/kg/injection, schedule: Q04DX003 (ip), vehicle: saline sonified 94 % of control | endpoint: mean survival time, dose: 400.0 mg/kg/injection, schedule: Q04DX003 (ip), vehicle: saline sonified 97 % of control

CC(C)(C)N.[O]=[Cr](=[O])([OH])[OH]
inactive: [1] 104 % of control | [2] 102 % of control | [3] 96 % of control | endpoint: mean survival time, dose: 40.0 mg/kg/injection, schedule: Q01DX001 (ip), vehicle: saline 94 % of control

O=S(=O)(O)c1ccc(N=Nc2cc(O)cc3ccccc23)cc1
inactive: endpoint: mean survival time, dose: 6.25 mg/kg/injection, schedule: Q01DX001 (ip), vehicle: saline 96 % of control | endpoint: mean survival time, dose: 12.5 mg/kg/injection, schedule: Q01DX001 (ip), vehicle: saline 92 % of control | endpoint: mean survival time, dose: 25.0 mg/kg/injection, schedule: Q01DX001 (ip), vehicle: saline 88 % of control | [4] 86 % of control | [5] 88 % of control | [6] 96 % of control

CCC(=O)NC1=C(Cl)C(=O)c2ccccc2C1=O
inactive: [1] 91 % of control | [2] 101 % of control | [3] 97 % of control

CC[N+]1(CC)N=C([O-])N(C)C1=O
inactive: [4] 103 % of control | [5] 101 % of control | [6] 97 % of control

CCOC(CS(=O)(=O)CC(N)=O)OCC
inactive: [7] 98 % of control | [8] 93 % of control | [9] 104 % of control

CN(C)[C-]=O.[C-]#[O+].[C-]#[O+].[Fe+6].[c-]1[c-][c-][cH-][c-]1
inactive: endpoint: mean survival time, dose: 75.0 mg/kg/injection, schedule: Q01DX001 (ip), vehicle: other 94 % of control | endpoint: mean survival time, dose: 150.0 mg/kg/injection, schedule: Q01DX001 (ip), vehicle: other 88 % of control

Cc1cc(OCCOC(=O)Nc2c(Cl)cccc2Cl)cc(C)c1Cl
inactive: [10] 92 % of control | [11] 100 % of control | [12] 107 % of control

OC1C=CC2CC1C2 (stereo not given)
inactive: [7] 95 % of control | [8] 98 % of control | [9] 98 % of control

CC(C)C1C(O)C23CCC4C(C)(CO)CCCC4(C)C2CC13 (stereo not given)
inactive: endpoint: mean survival time, dose: 100.0 mg/kg/injection, schedule: Q01DX001 (ip), vehicle: saline with Tween-80 96 % of control | endpoint: mean survival time, dose: 200.0 mg/kg/injection, schedule: Q01DX001 (ip), vehicle: saline with Tween-80 94 % of control | endpoint: mean survival time, dose: 400.0 mg/kg/injection, schedule: Q01DX001 (ip), vehicle: saline with Tween-80 94 % of control

CCCCC(C(=O)OCC)C(=O)c1ccccc1 (stereo not given)
inactive: [7] 96 % of control | [8] 94 % of control | [9] 97 % of control

O=C(Nc1ccc(O)cc1)c1c(O)[nH]c(=S)[nH]c1=O
inactive: endpoint: median survival time, dose: 12.5 mg/kg/injection, schedule: Q01DX009 (ip), vehicle: saline with Tween-80 107 % of control | endpoint: median survival time, dose: 25.0 mg/kg/injection, schedule: Q01DX009 (ip), vehicle: saline with Tween-80 106 % of control | endpoint: median survival time, dose: 50.0 mg/kg/injection, schedule: Q01DX009 (ip), vehicle: saline with Tween-80 106 % of control | endpoint: median survival time, dose: 100.0 mg/kg/injection, schedule: Q01DX009 (ip), vehicle: saline with Tween-80 100 % of control

COc1cccc(C2Nc3cc(Cl)ccc3S2)c1O (stereo not given)
inactive: endpoint: mean survival time, dose: 75.0 mg/kg/injection, schedule: Q01DX009 (ip), vehicle: other 98 % of control | endpoint: mean survival time, dose: 150.0 mg/kg/injection, schedule: Q01DX009 (ip), vehicle: other 96 % of control | endpoint: mean survival time, dose: 300.0 mg/kg/injection, schedule: Q01DX009 (ip), vehicle: other 102 % of control

CCS(=O)(=O)C1(S(=O)(=O)CC)CCCCC1
inactive: [4] 102 % of control | [5] 102 % of control | [6] 102 % of control

Cc1[nH]c(=S)[nH]c(=O)c1CCS
inactive: [4] 104 % of control | [5] 101 % of control | [6] 98 % of control

CC1(C)OCCCO1
inactive: endpoint: mean survival time, dose: 25.0 mg/kg/injection, schedule: Q04DX002 (ip), vehicle: saline 104 % of control | endpoint: mean survival time, dose: 50.0 mg/kg/injection, schedule: Q04DX002 (ip), vehicle: saline 96 % of control | endpoint: mean survival time, dose: 100.0 mg/kg/injection, schedule: Q04DX002 (ip), vehicle: saline 100 % of control

[N-]=[N+]=CC(=O)CCC(=O)C=[N+]=[N-]
inactive: endpoint: mean survival time, dose: 12.5 mg/kg/injection, schedule: Q01DX009 (ip), vehicle: other 106 % of control | endpoint: mean survival time, dose: 25.0 mg/kg/injection, schedule: Q01DX009 (ip), vehicle: other 90 % of control

O=C1c2ccccc2C(=O)N1CNc1cccc(NCN2C(=O)c3ccccc3C2=O)c1
inactive: endpoint: mean survival time, dose: 100.0 mg/kg/injection, schedule: Q01DX009 (ip), vehicle: acetone 98 % of control | endpoint: mean survival time, dose: 200.0 mg/kg/injection, schedule: Q01DX009 (ip), vehicle: acetone 103 % of control | endpoint: mean survival time, dose: 400.0 mg/kg/injection, schedule: Q01DX009 (ip), vehicle: acetone 93 % of control

O=S1(=O)c2ccccc2Oc2ccccc21
inactive: [11] 97 % of control | [12] 107 % of control | [13] 95 % of control

Cc1ccc(S(=O)(=O)OC2C(COCC(=O)O)OC3OC(C)(C)OC32)cc1 (stereo not given)
inactive: [11] 95 % of control | [7] 98 % of control | [12] 93 % of control | [8] 101 % of control | [13] 90 % of control | [9] 93 % of control

CCc1cccc(CC)c1NC(N)=S
inactive: [14] 108 % of control | [15] 97 % of control | [16] 101 % of control

Nc1cc2[nH]cnc2c(=O)[nH]1
inactive: endpoint: mean survival time, dose: 12.5 mg/kg/injection, schedule: Q01DX009 (ip), vehicle: suspension in saline 105 % of control | endpoint: mean survival time, dose: 25.0 mg/kg/injection, schedule: Q01DX005 (ip), vehicle: saline 97 % of control and 111 % of control | endpoint: mean survival time, dose: 25.0 mg/kg/injection, schedule: Q01DX009 (ip), vehicle: suspension in saline 113 % of control | endpoint: mean survival time, dose: 50.0 mg/kg/injection, schedule: Q01DX005 (ip), vehicle: saline 114 % of control and 119 % of control | endpoint: mean survival time, dose: 400.0 mg/kg/injection, schedule: Q01DX009 (ip), vehicle: suspension in saline 90 % of control

CCOC(=O)C(CCC(O)C#N)(NC(C)=O)C(=O)OCC (stereo not given)
inactive: [14] 101 % of control | [15] 96 % of control | [16] 100 % of control

Nc1ncnc2c1c1cncnc1n2C1OC(CO)C(O)C1O (stereo not given)
inactive: endpoint: mean survival time, dose: 12.5 mg/kg/injection, schedule: Q01DX005 (ip), vehicle: distilled water + Tween-80 96 % of control | endpoint: mean survival time, dose: 25.0 mg/kg/injection, schedule: Q01DX005 (ip), vehicle: distilled water + Tween-80 98 % of control | endpoint: mean survival time, dose: 50.0 mg/kg/injection, schedule: Q01DX005 (ip), vehicle: distilled water + Tween-80 93 % of control | endpoint: mean survival time, dose: 100.0 mg/kg/injection, schedule: Q01DX005 (ip), vehicle: distilled water + Tween-80 90 % of control | endpoint: mean survival time, dose: 200.0 mg/kg/injection, schedule: Q01DX005 (ip), vehicle: distilled water + Tween-80 105 % of control | endpoint: mean survival time, dose: 400.0 mg/kg/injection, schedule: Q01DX005 (ip), vehicle: distilled water + Tween-80 110 % of control

CC(=O)Nc1ccc(CN(C)N=Nc2ccc(C(=O)O)cc2)cc1
inactive: endpoint: mean survival time, dose: 25.0 mg/kg/injection, schedule: Q01DX009 (ip), vehicle: water 95 % of control | endpoint: mean survival time, dose: 50.0 mg/kg/injection, schedule: Q01DX009 (ip), vehicle: water 97 % of control | endpoint: mean survival time, dose: 100.0 mg/kg/injection, schedule: Q01DX009 (ip), vehicle: water 106 % of control | endpoint: mean survival time, dose: 200.0 mg/kg/injection, schedule: Q01DX009 (ip), vehicle: water 86 % of control | endpoint: mean survival time, dose: 400.0 mg/kg/injection, schedule: Q01DX009 (ip), vehicle: water 95 % of control

CCCCCCCCCCC(=O)N1CCOCC1
inactive: [10] 87 % of control | [11] 96 % of control
